Laboratory results reported in ChEMBL document CHEMBL5352460, “Antibacterial activity evaluation of pleuromutilin derivatives with 4(3H)-quinazolinone scaffold against methicillin-resistant Staphylococcusaureus” (Eur J Med Chem, 2023).
≈ marks a conversion by molar mass, not a printed value.

Legend:
Staphylococcus aureus [1] = test: microbe, parasite or virus in culture; format: functional; conditions: ATCC29213, time 20 hrs
Staphylococcus aureus [2] = test: microbe, parasite or virus in culture; format: functional; conditions: ATCC25923, time 20 hrs
Staphylococcus aureus [3] = test: microbe, parasite or virus in culture; format: functional; conditions: time 20 hrs
[4] = test system: Staphylococcus epidermidis; test: Antibacterial activity against methicillin-resistant Staphylococcus epidermidis assessed as inhibition of bacterial growth incubated for 20 hrs by absorbance based analysis; format: functional
Escherichia coli = test: microbe, parasite or virus in culture; format: functional; conditions: ATCC25922, time 20 hrs
[5] = Antibacterial activity against Salmonella pullorum assessed as inhibition of bacterial growth incubated for 20 hrs by absorbance based analysis; format: functional, Salmonella enterica subsp. enterica serovar Pullorum; conditions: Salmonella enterica
Staphylococcus aureus [6] = test: Bactericidal activity against methicillin-resistant Staphylococcus aureus assessed as reduction in bacterial count at 1 to 10 times of MIC incubated for 24 hrs by serial dilution based time-kill kinetics assay; format: functional
Staphylococcus aureus [7] = test: Antibacterial activity against methicillin-resistant Staphylococcus aureus assessed as reduction in bacterial growth at 1 to 10 times of MIC by serial dilution based time-kill kinetics assay; format: functional, organism-based; conditions: time <= 24.0 hrs, TDE = time-dependent effect
[8] = Cytotoxicity against mouse RAW264.7 cells assessed as inhibition of cell growth at 100 uM incubated for 72 hrs by CCK8 assay relative to control; format: toxicity, cell-based
[9] = Metabolic stability in rat liver microsomes assessed as half-life incubated for 45 mins in the presence of NADPH by LC/MS analysis; format: ADME, Microsome
[10] = Metabolic stability in rat liver microsomes assessed as intrinsic clearance incubated for 45 mins in the presence of NADPH by LC/MS analysis; format: ADME, Microsome; conditions: read-out: CLH
[11] = Metabolic stability in rat liver microsomes assessed as parent compound remaining incubated for 45 mins in the presence of NADPH by LC/MS analysis; format: ADME, Microsome; conditions: read-out: Stability
[12] = Metabolic stability in rat whole blood assessed as parent compound remaining measured immediately by LC-MS analysis; format: ADME, tissue-based; conditions: read-out: Stability
[13] = Metabolic stability in rat whole blood assessed as parent compound remaining measured after 5 mins by LC-MS analysis; format: ADME, tissue-based; conditions: read-out: Stability
[14] = Metabolic stability in rat whole blood assessed as parent compound remaining measured after 15 mins by LC-MS analysis; format: ADME, tissue-based; conditions: read-out: Stability
[15] = Metabolic stability in rat whole blood assessed as parent compound remaining measured after 30 mins by LC-MS analysis; format: ADME, tissue-based; conditions: read-out: Stability
[16] = Metabolic stability in rat whole blood assessed as parent compound remaining measured after 60 mins by LC-MS analysis; format: ADME, tissue-based; conditions: read-out: Stability
[17] = Metabolic stability in rat whole blood assessed as parent compound remaining measured after 120 mins by LC-MS analysis; format: ADME, tissue-based; conditions: read-out: Stability
[18] = Metabolic stability in rat whole blood assessed as half-life incubated upto 120 mins by LC/MS analysis; format: ADME, tissue-based
Staphylococcus aureus [19] = test: Antibacterial activity against methicillin-resistant Staphylococcus aureus infected in cyclophosphamide-induced neutropenic thigh infection Kunming mouse model assessed as reduction in bacterial count at 50 mg/kg, ip pre-infected with bacteria for 2 hrs followed by compound treatment and measured after 26 hrs; format: functional
Staphylococcus aureus [20] = test: Post antibiotic effect against methicillin-resistant Staphylococcus aureus assessed as time required for 1 log10 increase in CFU at 1 time of MIC incubated for 2 hrs followed by drug washout and measured after 24 hrs; format: functional
Staphylococcus aureus [21] = test: Post antibiotic effect against methicillin-resistant Staphylococcus aureus assessed as time required for 1 log10 increase in CFU at 2 times of MIC incubated for 2 hrs followed by drug washout and measured after 24 hrs; format: functional
Staphylococcus aureus [22] = test: Post antibiotic effect against methicillin-resistant Staphylococcus aureus assessed as time required for 1 log10 increase in CFU at 4 times of MIC incubated for 2 hrs followed by drug washout and measured after 24 hrs; format: functional
Staphylococcus aureus [23] = test: Post antibiotic effect against methicillin-resistant Staphylococcus aureus assessed as time required for 1 log10 increase in CFU at 10 times of MIC incubated for 2 hrs followed by drug washout and measured after 24 hrs; format: functional

Structure (SMILES)	MIC (Staphylococcus aureus [1])	MIC (Staphylococcus aureus [2])	MIC (Staphylococcus aureus [3])	MIC [4]	MIC (Escherichia coli)	MIC [5]	further results
C=C[C@]1(C)C[C@@H](OC(=O)CN2CCN(c3nc4ccccc4c(=O)[nH]3)CC2)[C@]2(C)[C@H](C)CC[C@]3(CCC(=O)[C@H]32)[C@@H](C)[C@@H]1O	0.125 µg/mL (≈ 0.212 µM)	0.063 µg/mL (≈ 0.107 µM)	0.125 µg/mL (≈ 0.212 µM)	1 µg/mL (≈ 1.69 µM)	64 µg/mL (≈ 108 µM)	> 64 µg/mL	Activity (Staphylococcus aureus [6]): 3.05 log10CFU/ml; Activity (Staphylococcus aureus [7]): Tde; inhibition at 72 h, 100 µM [8]: ~60%; half-life [9]: 0.81 min; microsomal CLint [10]: 3070 µL/min/mg; remaining at 0.75 h [11]: 0.21%
O=C(c1ccc(F)cc1)C1CCN(CCn2c(=O)[nH]c3ccccc3c2=O)CC1 [KETANSERIN]	–	–	–	–	–	–	half-life [9]: 27.9 min; microsomal CLint [10]: 88.9 µL/min/mg; remaining at 0.75 h [11]: 33.5%
C=C[C@]1(C)C[C@@H](OC(=O)CS[C@@H]2C[C@H]3CC[C@@H](C2)N3C)[C@]2(C)[C@H](C)CC[C@]3(CCC(=O)[C@H]32)[C@@H](C)[C@@H]1O [RETAPAMULIN]	0.063 µg/mL (≈ 0.122 µM)	0.063 µg/mL (≈ 0.122 µM)	0.063 µg/mL (≈ 0.122 µM)	0.5 µg/mL (≈ 0.966 µM)	4 µg/mL (≈ 7.73 µM)	> 64 µg/mL	half-life [9]: 3.29 min; microsomal CLint [10]: 755 µL/min/mg; remaining at 0.75 h [11]: 4.12%; remaining at 0 min [12]: 100%; remaining at 5 min [13]: 99.2%; remaining at 0.25 h [14]: 99.2%; remaining at 0.5 h [15]: 99%; remaining at 1 h [16]: 98.1%; remaining at 2 h [17]: 98.6%; half-life [18]: > 120 min
CC(Cc1cccc(C(F)(F)F)c1)NCCOC(=O)c1ccccc1 (stereo not given) [BENFLUOREX]	–	–	–	–	–	–	remaining at 0 min [12]: 100%; remaining at 5 min [13]: 77.8%; remaining at 0.25 h [14]: 71.3%; remaining at 0.5 h [15]: 49.2%; remaining at 1 h [16]: 19.5%; remaining at 2 h [17]: 3.63%; half-life [18]: 25.2 min
C=C[C@]1(C)C[C@@H](OC(=O)CSc2nc3c(C)cccc3c(=O)[nH]2)[C@]2(C)[C@H](C)CC[C@]3(CCC(=O)[C@H]32)[C@@H](C)[C@@H]1O	0.125 µg/mL (≈ 0.226 µM)	0.25 µg/mL (≈ 0.452 µM)	0.125 µg/mL (≈ 0.226 µM)	1 µg/mL (≈ 1.81 µM)	> 64 µg/mL	> 64 µg/mL	–
C=C[C@]1(C)C[C@@H](OC(=O)CSc2nc3ccccc3c(=O)[nH]2)[C@]2(C)[C@H](C)CC[C@]3(CCC(=O)[C@H]32)[C@@H](C)[C@@H]1O	0.25 µg/mL (≈ 0.464 µM)	0.25 µg/mL (≈ 0.464 µM)	0.25 µg/mL (≈ 0.464 µM)	1 µg/mL (≈ 1.86 µM)	> 64 µg/mL	> 64 µg/mL	–
C=C[C@]1(C)C[C@@H](OC(=O)CSc2nc3c(c(=O)[nH]2)CCC3)[C@]2(C)[C@H](C)CC[C@]3(CCC(=O)[C@H]32)[C@@H](C)[C@@H]1O	0.25 µg/mL (≈ 0.473 µM)	0.25 µg/mL (≈ 0.473 µM)	0.25 µg/mL (≈ 0.473 µM)	1 µg/mL (≈ 1.89 µM)	> 64 µg/mL	> 64 µg/mL	–
C=C[C@]1(C)C[C@@H](OC(=O)CSc2nc3ccccc3c(=O)n2CC)[C@]2(C)[C@H](C)CC[C@]3(CCC(=O)[C@H]32)[C@@H](C)[C@@H]1O	0.125 µg/mL (≈ 0.221 µM)	0.125 µg/mL (≈ 0.221 µM)	0.25 µg/mL (≈ 0.441 µM)	2 µg/mL (≈ 3.53 µM)	> 64 µg/mL	> 64 µg/mL	–
C=C[C@]1(C)C[C@@H](OC(=O)CSc2nc3c(Cl)cccc3c(=O)[nH]2)[C@]2(C)[C@H](C)CC[C@]3(CCC(=O)[C@H]32)[C@@H](C)[C@@H]1O	0.125 µg/mL (≈ 0.218 µM)	0.125 µg/mL (≈ 0.218 µM)	0.125 µg/mL (≈ 0.218 µM)	1 µg/mL (≈ 1.74 µM)	> 64 µg/mL	> 64 µg/mL	–
C=C[C@]1(C)C[C@@H](OC(=O)CSc2nc3ccc(F)cc3c(=O)[nH]2)[C@]2(C)[C@H](C)CC[C@]3(CCC(=O)[C@H]32)[C@@H](C)[C@@H]1O	0.25 µg/mL (≈ 0.449 µM)	0.25 µg/mL (≈ 0.449 µM)	0.5 µg/mL (≈ 0.898 µM)	2 µg/mL (≈ 3.59 µM)	> 64 µg/mL	> 64 µg/mL	–
C=C[C@]1(C)C[C@@H](OC(=O)CSCCN(CC)CC)[C@]2(C)[C@H](C)CC[C@]3(CCC(=O)[C@H]32)[C@@H](C)[C@@H]1O [TIAMULIN]	0.5 µg/mL (≈ 1.01 µM)	1 µg/mL (≈ 2.03 µM)	0.5 µg/mL (≈ 1.01 µM)	1 µg/mL (≈ 2.03 µM)	> 64 µg/mL	> 64 µg/mL	Activity (Staphylococcus aureus [19]): 1.62 log10CFU/ml; Time (Staphylococcus aureus [20]): 1.95 h; Time (Staphylococcus aureus [21]): 1.79 h; Time (Staphylococcus aureus [22]): 2.08 h; Time (Staphylococcus aureus [23]): 2.17 h; inhibition at 72 h, 100 µM [8]: ~60%; half-life [9]: 1.85 min; microsomal CLint [10]: 1340 µL/min/mg; remaining at 0.75 h [11]: 0.88%; remaining at 0 min [12]: 100%; remaining at 5 min [13]: 94.8%; remaining at 0.25 h [14]: 90.7%; remaining at 0.5 h [15]: 88.5%; remaining at 1 h [16]: 87.3%; remaining at 2 h [17]: 84%; half-life [18]: > 120 min
C=C[C@]1(C)C[C@@H](OC(=O)CSc2nc3ccccc3c(=O)n2C2CCCCC2)[C@]2(C)[C@H](C)CC[C@]3(CCC(=O)[C@H]32)[C@@H](C)[C@@H]1O	> 64 µg/mL	> 64 µg/mL	> 64 µg/mL	> 64 µg/mL	> 64 µg/mL	> 64 µg/mL	–
C=C[C@]1(C)C[C@@H](OC(=O)CSc2nc3cc(Cl)ccc3c(=O)[nH]2)[C@]2(C)[C@H](C)CC[C@]3(CCC(=O)[C@H]32)[C@@H](C)[C@@H]1O	0.25 µg/mL (≈ 0.436 µM)	0.5 µg/mL (≈ 0.872 µM)	0.5 µg/mL (≈ 0.872 µM)	1 µg/mL (≈ 1.74 µM)	> 64 µg/mL	> 64 µg/mL	–
C=C[C@]1(C)C[C@@H](OC(=O)CSc2nc3cccc(C)c3c(=O)[nH]2)[C@]2(C)[C@H](C)CC[C@]3(CCC(=O)[C@H]32)[C@@H](C)[C@@H]1O	0.25 µg/mL (≈ 0.452 µM)	0.25 µg/mL (≈ 0.452 µM)	0.25 µg/mL (≈ 0.452 µM)	2 µg/mL (≈ 3.62 µM)	> 64 µg/mL	> 64 µg/mL	–
C=C[C@]1(C)C[C@@H](OC(=O)CSc2nc3ncccc3c(=O)[nH]2)[C@]2(C)[C@H](C)CC[C@]3(CCC(=O)[C@H]32)[C@@H](C)[C@@H]1O	2 µg/mL (≈ 3.71 µM)	4 µg/mL (≈ 7.41 µM)	2 µg/mL (≈ 3.71 µM)	8 µg/mL (≈ 14.8 µM)	> 64 µg/mL	> 64 µg/mL	–
